Assay: xn = mol fraction of the nth substance listed

CCCCC + CCCCCCCC
Conditions	viscosity [mPa·s]
297.95 K, 101 kPa, x1 = 0.1048	0.4645
297.95 K, 101 kPa, x1 = 0.1992	0.4431
297.95 K, 101 kPa, x1 = 0.3044	0.4126
297.95 K, 101 kPa, x1 = 0.4015	0.3847
297.95 K, 101 kPa, x1 = 0.5066	0.3498
297.95 K, 101 kPa, x1 = 0.5998	0.3216
297.95 K, 101 kPa, x1 = 0.7095	0.2978
297.95 K, 101 kPa, x1 = 0.8097	0.2723
297.95 K, 101 kPa, x1 = 0.8946	0.2443
298.15 K, 101.33 kPa, x1 = 0.1059	0.4719
298.15 K, 101.33 kPa, x1 = 0.1973	0.4439
298.15 K, 101.33 kPa, x1 = 0.3019	0.4091
298.15 K, 101.33 kPa, x1 = 0.404	0.3806
298.15 K, 101.33 kPa, x1 = 0.5019	0.3545
298.15 K, 101.33 kPa, x1 = 0.6046	0.3228
298.15 K, 101.33 kPa, x1 = 0.7015	0.2963
298.15 K, 101.33 kPa, x1 = 0.8026	0.2702
298.15 K, 101.33 kPa, x1 = 0.9035	0.2454
313.05 K, 101 kPa, x1 = 0.1048	0.3939
313.05 K, 101 kPa, x1 = 0.1992	0.3894
313.05 K, 101 kPa, x1 = 0.3044	0.3676
313.05 K, 101 kPa, x1 = 0.4015	0.3504
313.05 K, 101 kPa, x1 = 0.5066	0.3205
313.05 K, 101 kPa, x1 = 0.5998	0.2816

CCCCC + CCCCCCCCC
298.15 K, 101.33 kPa
Conditions	viscosity [mPa·s]
x1 = 0.0925	0.611
x1 = 0.1995	0.5548
x1 = 0.308	0.5016
x1 = 0.403	0.4556
x1 = 0.4861	0.4179
x1 = 0.6016	0.3691
x1 = 0.702	0.3268
x1 = 0.8033	0.2892
x1 = 0.904	0.2538

C1CCCCCCC1 + CCCCCCCCCC
viscosity [mPa·s], 101 kPa
Conditions	x1 = 0.0657	x1 = 0.1971	x1 = 0.282	x1 = 0.386	x1 = 0.508	x1 = 0.5849	x1 = 0.7031	x1 = 0.7984	x1 = 0.9053
308.15 K	0.7647	0.829	0.881	0.9331	1.026	1.093	1.213	1.345	1.55
313.15 K	0.7178	0.7776	0.819	0.8631	0.9523	1.006	1.12	1.24	1.406

CCCCC + CCCCCCCCCC
viscosity [mPa·s]
Conditions	x1 = 0.1031	x1 = 0.2082	x1 = 0.3062	x1 = 0.408	x1 = 0.5061	x1 = 0.6029	x1 = 0.7058	x1 = 0.804	x1 = 0.9008
297.95 K, 101 kPa	0.7711	0.6992	0.6136	0.5536	0.4708	0.4339	0.3667	0.32	0.2645
298.15 K, 101.33 kPa	0.7775	0.6969	0.6169	0.5449	0.4818	0.4285	0.3626	0.3143	0.2671
313.05 K, 101 kPa	0.6585	0.5949	0.5183	0.4627	0.4237	0.3644	0.3189	0.2801	0.2396

CCCCC + CCCCCCCCCCCC
Conditions	viscosity [mPa·s]
293.15 K, 100 kPa, x1 = 0.0988	1.33
293.15 K, 100 kPa, x1 = 0.2004	1.153
293.15 K, 100 kPa, x1 = 0.2963	0.995
293.15 K, 100 kPa, x1 = 0.4022	0.847
293.15 K, 100 kPa, x1 = 0.5005	0.686
293.15 K, 100 kPa, x1 = 0.5989	0.581
293.15 K, 100 kPa, x1 = 0.7029	0.468
293.15 K, 100 kPa, x1 = 0.8	0.388
293.15 K, 100 kPa, x1 = 0.9011	0.304
298.15 K, 100 kPa, x1 = 0.0988	1.216
298.15 K, 100 kPa, x1 = 0.2004	1.054
298.15 K, 100 kPa, x1 = 0.2963	0.923
298.15 K, 100 kPa, x1 = 0.4022	0.79
298.15 K, 100 kPa, x1 = 0.5005	0.642
298.15 K, 100 kPa, x1 = 0.5989	0.548
298.15 K, 100 kPa, x1 = 0.7029	0.443
298.15 K, 100 kPa, x1 = 0.8	0.369
298.15 K, 100 kPa, x1 = 0.9011	0.289
298.15 K, 101.33 kPa, x1 = 0.1094	1.194
298.15 K, 101.33 kPa, x1 = 0.2073	1.037
298.15 K, 101.33 kPa, x1 = 0.299	0.9143
298.15 K, 101.33 kPa, x1 = 0.4078	0.7711
298.15 K, 101.33 kPa, x1 = 0.5008	0.6622
298.15 K, 101.33 kPa, x1 = 0.6031	0.5504
298.15 K, 101.33 kPa, x1 = 0.7069	0.4481
298.15 K, 101.33 kPa, x1 = 0.8062	0.3631
298.15 K, 101.33 kPa, x1 = 0.8991	0.2925
303.15 K, 100 kPa, x1 = 0.0988	1.119
303.15 K, 100 kPa, x1 = 0.2004	0.975
303.15 K, 100 kPa, x1 = 0.2963	0.857
303.15 K, 100 kPa, x1 = 0.4022	0.738
303.15 K, 100 kPa, x1 = 0.5005	0.603
303.15 K, 100 kPa, x1 = 0.5989	0.516
303.15 K, 100 kPa, x1 = 0.7029	0.42
303.15 K, 100 kPa, x1 = 0.8	0.358
303.15 K, 100 kPa, x1 = 0.9011	0.275
308.15 K, 100 kPa, x1 = 0.0988	1.032
308.15 K, 100 kPa, x1 = 0.2004	0.906
308.15 K, 100 kPa, x1 = 0.2963	0.8
308.15 K, 100 kPa, x1 = 0.4022	0.693
308.15 K, 100 kPa, x1 = 0.5005	0.568
308.15 K, 100 kPa, x1 = 0.5989	0.489
308.15 K, 100 kPa, x1 = 0.7029	0.399
308.15 K, 100 kPa, x1 = 0.8	0.34
313.15 K, 100 kPa, x1 = 0.0988	0.957
313.15 K, 100 kPa, x1 = 0.2004	0.843
313.15 K, 100 kPa, x1 = 0.2963	0.748
313.15 K, 100 kPa, x1 = 0.4022	0.65
313.15 K, 100 kPa, x1 = 0.5005	0.536
313.15 K, 100 kPa, x1 = 0.5989	0.463
313.15 K, 100 kPa, x1 = 0.7029	0.38
318.15 K, 100 kPa, x1 = 0.0988	0.89
318.15 K, 100 kPa, x1 = 0.2004	0.789
318.15 K, 100 kPa, x1 = 0.2963	0.702
318.15 K, 100 kPa, x1 = 0.4022	0.612
318.15 K, 100 kPa, x1 = 0.5005	0.507
318.15 K, 100 kPa, x1 = 0.5989	0.44
323.15 K, 100 kPa, x1 = 0.0988	0.83
323.15 K, 100 kPa, x1 = 0.2004	0.734
323.15 K, 100 kPa, x1 = 0.2963	0.66
323.15 K, 100 kPa, x1 = 0.4022	0.578
323.15 K, 100 kPa, x1 = 0.5005	0.481

CCCCC + CCCCCCCCCCCCCCCC
298.15 K, 101.33 kPa
Conditions	viscosity [mPa·s]
x1 = 0.1111	2.574
x1 = 0.2119	2.17
x1 = 0.3099	1.816
x1 = 0.4166	1.457
x1 = 0.5122	1.172
x1 = 0.6089	0.9218
x1 = 0.7034	0.7004
x1 = 0.8034	0.5086
x1 = 0.9029	0.3464

CS(C)=O + CCCCCCCO
101 kPa
Conditions	viscosity [mPa·s]
303.15 K, x1 = 0.1547	4.098
303.15 K, x1 = 0.3356	3.3
303.15 K, x1 = 0.4628	2.842
303.15 K, x1 = 0.5727	2.55
303.15 K, x1 = 0.6715	2.336
303.15 K, x1 = 0.7519	2.179
303.15 K, x1 = 0.8247	2.052
303.15 K, x1 = 0.8847	1.987
303.15 K, x1 = 0.9327	1.891
313 K, x1 = 0.1239	3.068
313 K, x1 = 0.2133	2.75
313 K, x1 = 0.2979	2.528
313 K, x1 = 0.4847	2.188
313 K, x1 = 0.5993	1.998
313 K, x1 = 0.7039	1.839
313 K, x1 = 0.8016	1.743
313 K, x1 = 0.9028	1.621
